One data set addresses T1, Beta-glucuronidase (Bos taurus, UniProt A3KMY8).
T1 sequence (A3KMY8 whole entry): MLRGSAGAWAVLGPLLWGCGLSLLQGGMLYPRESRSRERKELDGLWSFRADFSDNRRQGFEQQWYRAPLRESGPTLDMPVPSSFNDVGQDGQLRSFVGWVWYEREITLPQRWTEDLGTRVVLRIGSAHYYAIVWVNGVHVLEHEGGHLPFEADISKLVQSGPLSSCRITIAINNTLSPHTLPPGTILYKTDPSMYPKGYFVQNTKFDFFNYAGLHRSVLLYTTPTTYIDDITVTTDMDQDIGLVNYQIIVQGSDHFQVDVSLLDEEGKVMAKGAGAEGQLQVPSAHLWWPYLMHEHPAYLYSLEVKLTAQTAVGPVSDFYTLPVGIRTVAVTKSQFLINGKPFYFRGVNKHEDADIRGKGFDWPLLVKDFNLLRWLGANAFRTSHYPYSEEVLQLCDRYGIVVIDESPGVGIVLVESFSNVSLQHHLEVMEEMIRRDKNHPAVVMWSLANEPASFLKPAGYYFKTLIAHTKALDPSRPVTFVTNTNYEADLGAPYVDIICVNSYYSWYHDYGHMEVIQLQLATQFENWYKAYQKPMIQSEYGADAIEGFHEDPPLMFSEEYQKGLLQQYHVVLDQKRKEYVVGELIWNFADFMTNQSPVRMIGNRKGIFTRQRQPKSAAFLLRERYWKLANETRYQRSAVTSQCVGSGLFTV
Kind of data set: (§1) Inhibition of bovine liver beta glucuronidase assessed as p-nitrophenol formation after 30 mins by spectrophotometric method.

For the next data set, the system named is 3T3-L1. In words: Cytotoxic activity against mouse 3T3L1 cells assessed as cell viability at 1 to 20 ug/ml after 48 hrs by MTT assay. It counts as cell-based. The settings on record: 3t3-l1, 48 h. A general note: Formazan colour is commonly taken as a measure of viable cells.
The next data set deals with CC-1. Kind of data set: Cytotoxic activity against Wistar rat CC1 cells assessed as cell viability at 1 to 20 ug/ml after 48 hrs by MTT assay. It counts as cell-based. As to conditions: cc-1, 48 h.
Data set [1] is described as follows: Inhibition of urease.
Data set [2] in a line: Inhibition of alpha-chymotrypsin.
For data set [3], the target named is T2, Beta-glucuronidase (Bos taurus) (UniProt A3KMY8).
T2 sequence (whole entry): T1 sequence (A3KMY8 whole entry)
The description is as §1.

In data set [4] the target is T2, Beta-glucuronidase (Bos taurus). Kind of data set: Inhibition of bovine liver beta glucuronidase assessed as p-nitrophenol formation at 0.2 mM after 30 mins by spectrophotometric method.
The target is the same in data set [5]. Kind of data set: Ratio of D-saccharic acid 1,4-lactone IC50 to compound IC50 for bovine liver beta glucuronidase.

Each structure is given as a SMILES string. Active and inactive are the calls of the source. The calls are words filed in the database; no cut-off is given here.

Regarding `Oc1ccc(-c2nc3ccccc3s2)cc1`, the IC50 on Beta-glucuronidase turned out to be 8.9 µM. Also, the Activity entry in the data set with 3T3-L1 and in the data set with CC-1 was “Non-toxic” throughout. The inhibition result in data set [1] and in data set [2] was “inactive” throughout.
As for `Oc1ccc(O)c(-c2nc3ccccc3s2)c1`, the half-inhibitory concentration (IC50) at Beta-glucuronidase was found to be 8.9 µM. The Activity entry in the data set with 3T3-L1 and in the data set on CC-1 was “Non-toxic” throughout. The inhibition result in data set [1] and in data set [2] was “inactive” each time.
Turning to `c1cncc(-c2nc3ccccc3s2)c1`, the inhibition entry in data set [3], in data set [1] and in data set [2] was “inactive” in each case.
As for `Fc1ccccc1-c1nc2ccccc2s1`, the inhibition result in data set [3], in data set [1] and in data set [2] was “inactive” in each case.
Regarding `Clc1ccc(-c2nc3ccccc3s2)cc1`, the inhibition in data set [4] is less than 50%. In addition, the inhibition entry in data set [1] and in data set [2] was “inactive” in each case.
As to `COc1ccc(-c2nc3ccccc3s2)cc1OC`, the inhibition entry in data set [3], in data set [1] and in data set [2] was “inactive” each time.
Regarding `Oc1ccc(-c2nc3ccccc3s2)cc1O`, the IC50 at Beta-glucuronidase is 94 µM. Also, the Activity entry in the data set with 3T3-L1 and in the data set on CC-1 was “Non-toxic” in each case. Also, the inhibition entry in data set [1] and in data set [2] was “inactive” each time.
As to `c1csc(-c2nc3ccccc3s2)c1`, the inhibition in data set [4] is less than 50%. Also, the inhibition entry in data set [1] and in data set [2] was “inactive” in each case.
As to `Cc1ccc(-c2nc3ccccc3s2)cc1`, the inhibition in data set [4] is less than 50%. In addition, the inhibition result in data set [1] and in data set [2] was “inactive” in each case.
Turning to `Oc1ccccc1-c1nc2ccccc2s1`, the IC50 on Beta-glucuronidase turned out to be 4.23 µM. The Activity result in the data set on 3T3-L1 and in the data set on CC-1 was “Non-toxic” in each case. The inhibition result in data set [1] and in data set [2] was “inactive” each time. The Ratio IC50 in data set [5] was 12.
`Oc1cccc(-c2nc3ccccc3s2)c1`: the IC50 at Beta-glucuronidase was 36.1 µM. For the same compound, the Activity entry in the data set with 3T3-L1 and with CC-1 was “Non-toxic” each time. Besides, the inhibition result in data set [1] and in data set [2] was “inactive” each time.
For the compound `Cc1ccccc1-c1nc2ccccc2s1`, in data set [4], the inhibition is less than 50%. Moreover, the inhibition result in data set [1] and in data set [2] was “inactive” each time.
`Clc1cccc(-c2nc3ccccc3s2)c1`: in data set [4], the inhibition was less than 50%. Also, the inhibition result in data set [1] and in data set [2] was “inactive” throughout.
Regarding `Brc1ccc(-c2nc3ccccc3s2)cc1`, the inhibition entry in data set [3], in data set [1] and in data set [2] was “inactive” each time.
Consider `Clc1ccc(-c2nc3ccccc3s2)cc1Cl`, for which the inhibition in data set [4] was less than 50%. Moreover, the inhibition entry in data set [1] and in data set [2] was “inactive” each time.
`CCOc1ccc(-c2nc3ccccc3s2)cc1`: the inhibition entry in data set [3], in data set [1] and in data set [2] was “inactive” throughout.
For the compound `c1ccc2cc(-c3nc4ccccc4s3)ccc2c1`, the inhibition in data set [4] was less than 50%. Besides, the inhibition entry in data set [1] and in data set [2] was “inactive” in each case.
As for `CN(C)c1ccc(-c2nc3ccccc3s2)cc1`, the inhibition result in data set [3], in data set [1] and in data set [2] was “inactive” each time.
In the case of `COc1cccc(-c2nc3ccccc3s2)c1O`, the inhibition in data set [4] is less than 50%. Also, the inhibition result in data set [1] and in data set [2] was “inactive” each time.
For the compound `Clc1ccc(-c2nc3ccccc3s2)c(Cl)c1`, the inhibition entry in data set [3], in data set [1] and in data set [2] was “inactive” in each case.
For `c1ccc2sc(-c3ccncc3)nc2c1`, in data set [4], the inhibition was less than 50%. Besides, the inhibition result in data set [1] and in data set [2] was “inactive” throughout.
Consider `Oc1cc(O)c(-c2nc3ccccc3s2)cc1O`, for which, at Beta-glucuronidase, the IC50 was determined as 2.26 µM. The Activity result with 3T3-L1 and in the data set with CC-1 was “Non-toxic” throughout. The inhibition result in data set [1] and in data set [2] was “inactive” each time. In data set [5], the Ratio IC50 worked out at 24.
Turning to `CCOc1cccc(-c2nc3ccccc3s2)c1O`, the inhibition result in data set [3], in data set [1] and in data set [2] was “inactive” in each case.
Take `Oc1ccc(Cl)cc1-c1nc2ccccc2s1`: in data set [4], the inhibition is less than 50%. Also, the inhibition entry in data set [1] and in data set [2] was “inactive” in each case.
Regarding `Oc1ccc(-c2nc3ccccc3s2)c(O)c1`, the IC50 on Beta-glucuronidase is 19.4 µM. In addition, the Activity result in the data set on 3T3-L1 and with CC-1 was “Non-toxic” throughout. The inhibition result in data set [1] and in data set [2] was “inactive” in each case.
Take `Oc1cccc(-c2nc3ccccc3s2)c1O`: in data set [4], the inhibition is less than 50%. For the same compound, the inhibition entry in data set [1] and in data set [2] was “inactive” throughout.

As usually defined, the IC50 is the concentration that gives 50% inhibition. Broadly, the inhibition is the relative decrease from the control value, in per cent.

The values are drawn from ChEMBL document CHEMBL1806478, “Synthesis of novel inhibitors of β-glucuronidase based on benzothiazole skeleton and study of their binding affinity by molecular docking” (Bioorg Med Chem, 2011).
